Source: US20230301981A1, “TLR7/8 ANTAGONISTS AND USES THEREOF” (Merck Patent GmbH, priority 2020, published 2023)

Experiments:
Assay type in all cases: cell-based
TLR7 [1] = molecular target: T1, TLR7 (Homo sapiens, UniProt Q9NYK1); test: HEK293 TLR7/NFKb reporter cell assay with R848 agonist; design: expressed in transfected cells; host or cells: HEK293
T1 sequence (Q9NYK1 27-1049): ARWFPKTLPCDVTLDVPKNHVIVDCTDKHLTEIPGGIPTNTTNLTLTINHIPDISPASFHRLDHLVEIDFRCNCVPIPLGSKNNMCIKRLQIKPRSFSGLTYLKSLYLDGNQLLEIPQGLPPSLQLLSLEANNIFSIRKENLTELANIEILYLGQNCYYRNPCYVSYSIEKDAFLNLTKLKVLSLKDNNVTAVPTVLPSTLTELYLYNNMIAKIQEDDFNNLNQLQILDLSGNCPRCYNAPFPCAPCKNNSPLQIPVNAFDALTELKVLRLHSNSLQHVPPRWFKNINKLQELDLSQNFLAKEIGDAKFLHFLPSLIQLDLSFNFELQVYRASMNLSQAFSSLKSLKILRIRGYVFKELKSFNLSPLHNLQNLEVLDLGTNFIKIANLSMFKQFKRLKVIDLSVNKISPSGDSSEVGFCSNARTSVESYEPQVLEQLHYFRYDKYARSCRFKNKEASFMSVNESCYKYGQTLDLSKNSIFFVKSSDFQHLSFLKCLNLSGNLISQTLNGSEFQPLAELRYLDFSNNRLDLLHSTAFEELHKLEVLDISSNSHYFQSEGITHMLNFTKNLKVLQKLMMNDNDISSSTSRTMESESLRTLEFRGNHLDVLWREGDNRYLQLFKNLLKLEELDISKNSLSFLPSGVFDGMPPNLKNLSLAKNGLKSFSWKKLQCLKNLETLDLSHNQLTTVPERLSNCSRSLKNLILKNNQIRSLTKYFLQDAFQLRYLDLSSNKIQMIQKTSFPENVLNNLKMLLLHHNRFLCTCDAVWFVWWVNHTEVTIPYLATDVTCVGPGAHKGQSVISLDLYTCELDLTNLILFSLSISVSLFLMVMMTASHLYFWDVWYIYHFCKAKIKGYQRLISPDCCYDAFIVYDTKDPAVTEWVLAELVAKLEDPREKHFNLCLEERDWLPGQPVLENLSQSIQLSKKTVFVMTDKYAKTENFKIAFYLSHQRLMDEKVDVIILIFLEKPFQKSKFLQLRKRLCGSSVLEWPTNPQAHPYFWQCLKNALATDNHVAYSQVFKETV
Experimental: Into 384 CulturePlates (Corning 3707) was placed 5000 c/w of HEK293 TLR7/NFKb reporter cells in 30 µL DMEM without phenol red and 10% i.a. FCS and 2 mM L-glutamine. The cells were incubated for 24 h at 37° C., 10% carbon dioxide and 90% relative humidity. 3 µL of controls, standards, and compounds were dispensed to wells, incubated for 30 min then 3 µL of R848 agonist (Resiquimod) in 20 mM HEPES buffer was added. After incubation for 5 hours, it was allowed to stand at room temperature for 15 min. 10 µL of Steady-Glo substrate reagent was added and assay plates were shaken for 5 min at 1500 rpm. The assay plate was allowed to sit for 30 min at room temperature and then read on an EnVision plate reader.

TLR8 = molecular target: T2, TLR8 (Homo sapiens, UniProt Q9NR97); test: Human whole blood assay, TLR8-specific agonist stimulation, IL-6 by AlphaLISA; details: TLR8-specific agonist 0.5 µM, IL-6 readout, read-out: IC50 TLR8 (IL6 READOUT) HUMAN WHOLE BLOOD (N=2)
T2 construct: Human whole blood from healthy donors was drawn into EDTA Vacutainer tubes; endogenous in cells; host or cells: human whole blood (healthy donors)
T2 sequence (Q9NR97 27-1041): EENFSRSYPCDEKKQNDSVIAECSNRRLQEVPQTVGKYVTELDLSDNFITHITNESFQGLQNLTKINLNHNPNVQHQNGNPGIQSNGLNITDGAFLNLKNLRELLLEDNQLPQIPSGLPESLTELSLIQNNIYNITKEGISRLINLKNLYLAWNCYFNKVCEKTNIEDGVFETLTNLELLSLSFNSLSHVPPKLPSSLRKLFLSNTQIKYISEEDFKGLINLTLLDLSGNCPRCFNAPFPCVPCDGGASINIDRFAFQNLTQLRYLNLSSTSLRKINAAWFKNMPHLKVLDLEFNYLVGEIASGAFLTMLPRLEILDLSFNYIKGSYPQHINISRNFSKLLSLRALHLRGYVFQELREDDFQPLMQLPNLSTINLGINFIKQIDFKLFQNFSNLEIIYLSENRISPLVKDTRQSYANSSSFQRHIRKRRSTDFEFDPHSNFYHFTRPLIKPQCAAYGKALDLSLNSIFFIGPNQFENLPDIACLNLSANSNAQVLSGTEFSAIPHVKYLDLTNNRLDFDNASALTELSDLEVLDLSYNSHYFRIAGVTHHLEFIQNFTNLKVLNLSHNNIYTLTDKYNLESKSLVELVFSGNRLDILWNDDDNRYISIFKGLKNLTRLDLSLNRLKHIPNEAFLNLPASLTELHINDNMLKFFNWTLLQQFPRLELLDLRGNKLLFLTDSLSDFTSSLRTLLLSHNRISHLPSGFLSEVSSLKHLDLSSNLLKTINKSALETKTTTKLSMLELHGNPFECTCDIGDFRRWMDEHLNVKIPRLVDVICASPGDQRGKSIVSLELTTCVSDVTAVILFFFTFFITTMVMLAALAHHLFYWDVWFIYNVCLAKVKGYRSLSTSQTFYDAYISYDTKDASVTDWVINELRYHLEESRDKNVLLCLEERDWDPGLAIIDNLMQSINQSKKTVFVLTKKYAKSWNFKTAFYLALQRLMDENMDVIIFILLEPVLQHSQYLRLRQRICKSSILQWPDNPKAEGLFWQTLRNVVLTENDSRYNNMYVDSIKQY
Experimental: (§1) Human whole blood from healthy donors was drawn into EDTA Vacutainer tubes and the experiment started within 2 hr of draw. Four parts blood was diluted with 1 part PBS. 10 mM compounds stock solutions were serially diluted 1:3 eleven times in DMSO. Each serial dilution was further diluted by transferring 3 µl to 100 µl RPMI. For the stimulation only and no stimulation controls, 3 µl 100% DMSO was transferred to 100 µl RPMI. Then, 5 µl of each of these dilutions were transferred to 96-well tissue culture grade U-bottom plate in triplicate for each ligand and each donor. Final inhibitor concentrations were 10, 3.3, 1.1, 0.37, 0.12, 0.04, 0.014, 0.0046, 0.0015, 0.00051, 0.00017, 0.00006 µM. No inhibitor (stimulation only) controls were included in triplicate for each donor. Diluted blood was dispensed on top of inhibitor dilutions at 150 µl/well. Plates were incubated at 37° C. 5% CO2 for 30 min. For TLR7 stimulation, 10 mM stock of a TLR7-specific small molecule agonist in DMSO was diluted to 90 µM in RPMI and 5 µl were added to each inhibitor dilution for each donor. Final concentration was 3 µM. For TLR8 stimulation, 10 mM stock of a TLR8-specific small molecule agonist in DMSO was diluted to 15 µM in RPMI and 5 µl were added to each inhibitor dilution for each donor. Final concentration was 0.5 µM. No stimulation controls were included in triplicate for each donor. Plates were incubated at 37° C. 5% CO2 overnight. Next day, plasma was collected and IL-6 was measured by AlphaLISA (PerkinElmer AL223 according to manufacturer’s protocol.

TLR7 [2] = molecular target: T1, TLR7; test: Human whole blood assay, TLR7-specific agonist stimulation, IL-6 by AlphaLISA; design: Human whole blood from healthy donors was drawn into EDTA Vacutainer tubes; endogenous in cells; host or cells: human whole blood (healthy donors); details: TLR7-specific agonist 3 µM, IL-6 readout, read-out: IC50 TLR7 (IL6 READOUT) HUMAN WHOLE BLOOD (N=2)
Experimental: as §1

[3] = HEK293 TLR7/NFKb reporter cells, R848 agonist, read-out: IC50 TLR7 (IL6 READOUT) HEK TRANSFECTED
[4] = Example 4 results table, assay/readout not specified, read-out: Potency

IC50 (TLR7 [1]; [3]) [nM] | IC50 (TLR8) [µM] | IC50 (TLR7 [2]) [nM] | IC50 (TLR7 [1]; [4]) [nM] | Structure (SMILES)
> 10000 |  |  |  | CCN(CC)Cc1cc(Nc2ccnc3cc(Cl)ccc23)ccc1O [AMODIAQUINE]
 | 53.3 | 2280 |  | CCN(CC)CCCC(C)Nc1ccnc2cc(Cl)ccc12 (stereo not shown) [CHLOROQUINE, Chloroquine]
1390 |  |  | < 1000 | CCN(CC)Cc1cc(Nc2ccnc3cc(Cl)ccc23)cc(CN(CC)CC)c1O [Compound 2, CYCLOQUINE]
4590 |  |  | < 1000 | Oc1c(CN2CCCC2)cc(Nc2ccnc3cc(Cl)ccc23)cc1CN1CCCC1 [Compound 3, BISPYROQUINE]
